Test results as given in patent publication US20230127559A1, “PEPTIDE ANALOGS AND USE OF SAME IN TREATING DISEASES, DISORDERS OR CONDITIONS ASSOCIATED WITH MUTANT P53 PROTEIN” (YEDA RESEARCH AND DEVELOPMENT CO. LTD., priority 2020, published 2023).
Like-named read-outs stand apart in the source and are kept apart here. Where a SMILES comes first, the peptide text is derived from it. Bridges are numbered along the chain shown (N, C = ends). [ ]: non-standard residue; d: D form. The star is where a group is joined. Stearoyl = CCCCCCCCCCCCCCCCCC(=O)*; Myristoyl = CCCCCCCCCCCCCC(=O)*; Dab = NCC[C@H](N)C(=O)O; Dmp = di-methyl proline

What was measured:
[1] = test system: PANC1 (pancreatic carcinoma) cells, p53R273H; assay type: cell-based
Protocol: (§1) Cells were cultured in 96 wells plates with 2500-4000 cells/well. Serial dilutions of different peptides were added and the plates incubated for additional 48 h at 37° C. Then medium was removed and cell viability was determined by staining the cells with crystal violet (0.05%) in methanol/PBS (1:5, v/v), for 10 min, followed by 3 washes with PBS. 10% acetic acid was added to each well for 10 min. OD was determined at 595 nm.
(§2) The IC50 tables presented in FIGS. 17-20 are from several representative experiments performed on cell lines expressing several p53 hotspot mutations, as well as control non-transformed cells: […]

[2] = test system: WI38 (non-transformed fibroblasts) cells, wtp53; assay type: cell-based
Protocol: as §1, §2

[3] = test system: MIA PaCa-2 (pancreatic carcinoma) cells, p53R248W; assay type: cell-based
Protocol: as §1, §2

[4] = Solubility at physiological pH; assay type: physicochemical
[5] = test system: panel of cell lines expressing mutp53; assay type: cell-based
Protocol: as §1
(§3) The IC50 tables presented in FIGS. 17-20 are from several representative experiments performed on cell lines expressing several p53 hotspot mutations, as well as control non-transformed cells:
Proline residue position—Based on alanine scanning and molecular dynamics analyses, it is believed that the proline residue at the 6th position from the N-terminal is critical for the peptide's 3D structure and provides some rigidity required for peptide binding and activity. Therefore, it was hypothesized that a change in orientation or tetrahedral angle might increase the affinity of the peptide for p53. Six new peptides were synthesized replacing this proline residue with proline analogs (pCAPs 708-712, and pCAP-716, SEQ ID NOS: 6-10 and 14, respectively). This set of peptides was tested for activity on a panel of cell lines expressing mutp53, and compared it to pCAP-674 (SEQ ID NO: 27) and to the scrambled sequence peptides pCAP-721 (SEQ ID NO: 19) and pCAP-722 (SEQ ID NO: 20).

[6] = test system: SW-480 (colon carcinoma) cells, p53R273H, P309S; assay type: cell-based
Protocol: as §1, §2

[7] = test system: RXF-393 (renal carcinoma) cells, p53R175H; assay type: cell-based, human
Protocol: as §1, §3
Fatty acid position. Lead peptides were modified with N-terminal myristic acid to enable the penetration of peptides across the cell membrane. Although myristic acid is usually the default choice for cell permeability, additional options were explored of longer fatty acids and to examine the effect on peptide efficacy in terms of cancer cell killing. A standard crystal violet viability test was performed on human renal carcinoma RXF-393 cells, comparing the original pCAP-553, which has myristic acid (C14), with 4 derivative peptides modified with longer fatty acid chains: palmitic (C16), stearic (C18), […] (C20) and behenic (C22).

[8] = test system: PC9 (lung carcinoma) cells, p53R248Q; assay type: cell-based
Protocol: as §1, §2

[9] = test system: RXF-393 renal cell carcinoma (RCC) cell line, endogenously expressing p53R175H; assay: RXF-393 luciferase xenograft model, tumor growth by IVIS; assay type: in vivo, athymic Nude-Foxn1nu mice; conditions: for tumor growth, average IVIS signal (in words): subcutaneous injections 20 mg/Kg, 2 days a week
Text: To investigate the efficacy of the lead peptides in vivo, a representative cancer cell line-based xenograft model was employed. The selection of the in vivo model was based on the peptide/cell line combination that yielded the strongest effects in culture: human renal carcinoma RXF-393 cells. The peptide analog pCAP-724 (SEQ ID NO: 22), administered by subcutaneous injections and sustained subcutaneous release, was compared to the control scrambled peptide pCAP-722 (SEQ ID NO: 20). Tumor growth was monitored by luciferase activity, measured in an IVIS200® Spectrum system that combines 2D optical and 3D optical tomography in one platform. The system uses leading optical technology for preclinical imaging research and development, ideal for non-invasive longitudinal monitoring of disease progression in living animals
The RXF-393 renal cell carcinoma (RCC) cell line, endogenously expressing p53R175H, and stably expressing Luciferase was utilized. • 1. 0.75×10^6 cells in 50% HBSS 50% Cultrex (1000) were injected subcutaneously, into both hips of athymic Nude-Foxn1nu mice (6 weeks old). • 2. Tumor growth over time was measured by live imaging, using the […] system. Exposure time was calibrated to 20 sec and peak luminescence values were taken for each tumor. • 3. 21 and 24 days after injection of cells, when tumors reached visible size (50-100 mm^3) and an average IVIS signal of 10^7 (100-fold over threshold), the mice were randomly divided into several groups (5 or 6 mice per each group), according to the mode of administration and peptides: • Subcutaneous injections, performed 2 days a week for 3-4 weeks (20 mg/Kg). Two injections will be given for each day of treatment 16 h interval to allow effective level of peptide for 24 h. […]
• 4. Tumor growth over time was measured by live imaging, twice a week. The experiment was conducted until tumors reached the maximal allowed size of 1 cm^3, at which time mice were sacrificed, tumors extracted, measured, photographed, and weighed.

[10] = Pharmacokinetic profile, LC-MS of peptide concentration in plasma; assay type: in vivo, mice
Protocol: FIG. 21 depicts PK profile for pCAP-724 (SEQ ID NO:22). LC-MS analysis of peptide concentration in the plasma of injected mice. Each point represents an average reading from 3 mice. Shown are mean plasma concentrations (mpk) of the peptide, following administration either intravenously at 1 mg/kg (IV) or subcutaneously at 5 mg/kg (SC).
Each point represents the average from 3 mice. When administered subcutaneously into mice, pCAP-724 levels reach a maximal concentration after 2 h and a show a half-life (T1/2) of about 10 h. […] From the PK study, it is estimated that a continuous long-acting administration of 20 mg/kg/day of pCAP-724 (SEQ ID NO: 22) will yield a steady state concentration in the blood of about 7-10 μM.

IC50 ([1]; 48 h) [µM] | IC50 ([3]; 48 h) [µM] | IC50 ([6]; 48 h) [µM] | Compound | IC50 ([2]; 48 h) [µM] | activity in viability assays compared with other peptides (in words) [5] | further results
2.15 | 0.3 | 1.2 | CCCCCCCCCCCCCCCCCC(=O)N[C@@H](CCCNC(=N)N)C(=O)N[C@@H](CCCNC(=N)N)C(=O)N[C@@H](Cc1c[nH]cn1)C(=O)N[C@@H](CO)C(=O)N[C@@H](C(=O)N1CCC[C@H]1C(=O)N[C@@H](CCN)C(=O)N1CCC[C@H]1C(=O)N[C@@H](CC(=O)O)C(N)=O)C(C)C [pCAP-717, str-RRHSvP(Dab)PD-NH2] (Stearoyl-RRHS[dV]P[Dab]PD-NH2) | 35 |  | 
1.24 | 0.3 | 1.2 | CCCCCCCCCCCCCCCCCC(=O)N[C@@H](CCCNC(=N)N)C(=O)N[C@@H](CCCNC(=N)N)C(=O)N[C@@H](Cc1c[nH]cn1)C(=O)N[C@@H](CO)C(=O)N[C@@H](C(=O)N1CCC[C@@H]1C(=O)N[C@@H](CCN)C(=O)N1CCC[C@H]1C(=O)N[C@@H](CC(=O)O)C(=O)NCC(=O)N[C@@H](CCC(=O)O)C(=O)N[C@@H](C)C(=O)O)C(C)C [pCAP-720, str-RRHSvp(Dab)PDGEA] (Stearoyl-RRHS[dV][dP][Dab]PDGEA-OH; C-terminus assumed) | 32 | comparable activity to pCAP-717 | 
> 40 |  |  | CCCCCCCCCCCCCCCCCC(=O)N[C@@H](CC(=O)O)C(=O)N1CCC[C@H]1C(=O)N[C@@H](Cc1c[nH]cn1)C(=O)N[C@@H](C(=O)N[C@@H](CO)C(=O)N1CCC[C@H]1C(=O)N[C@@H](CCCNC(=N)N)C(=O)N[C@@H](CCN)C(=O)N[C@@H](CCCNC(=N)N)C(N)=O)C(C)C [pCAP-722, str-DPHvSPR(Dab)R-NH2, reference compound] (Stearoyl-DPH[dV]SPR[Dab]R-NH2) | > 40 |  | IC50 ([7]; 48 h): > 40 µM; IC50 ([8]; 48 h): > 40 µM; tumor growth, average IVIS signal (in words) [9]: continued its exponential growth
1.02 | 0.25 | 0.65 | CCCCCCCCCCCCCCCCCC(=O)N[C@@H](CCCNC(=N)N)C(=O)N[C@@H](CCCNC(=N)N)C(=O)N[C@@H](Cc1c[nH]cn1)C(=O)N[C@@H](CO)C(=O)N[C@@H]1CCCCNC(=O)[C@H](CC(=O)O)NC(=O)[C@@H]2CCCN2C(=O)[C@H](CCN)NC(=O)[C@H]2CCCN2C1=O [pCAP-724, str-RRHSkp(Dab)PD-Cyc] (Stearoyl-RRHS[dK][dP][Dab]PD; lactam 5-C) | 32 | modest increase in activity compared with pCAP-713 | estimated steady state concentration in the blood ([10]; continuous long-acting administration of 20 mg/kg/day): 7 to 10 µM; half-life ([10]; mouse, in vivo, sc, 5 mg/kg, administered subcutaneously into mice, read-out: half-life (T1/2) (converted)): ~10 h; Tmax ([10]; mouse, plasma, sc, 5 mg/kg, administered subcutaneously into mice, read-out: time of maximal plasma concentration): 2 h; decrease in tumor signal (IVIS) ([9]; Alzet mini pumps 20 mg/Kg/Day SC continuous, within 14 days): 5 fold; tumor growth, average IVIS signal (in words) [9]: slowed down tumor growth for the first 10 days; IC50 ([5]; 48 h): 0.1 to 1 µM
> 40 | > 30 | > 30 | CCCCCCCCCCCCCCCCCC(=O)N[C@@H](CC(=O)O)C(=O)N1CCC[C@H]1C(=O)N[C@@H](Cc1c[nH]cn1)C(=O)N[C@H]1CCCCNC(=O)[C@H](CCCNC(=N)N)NC(=O)[C@H](CCN)NC(=O)[C@H](CCCNC(=N)N)NC(=O)[C@@H]2CCCN2C(=O)[C@H](CO)NC1=O [pCAP-725, str-DPHKSPR(Dab)R-Cyc, reference compound] (Stearoyl-DPHKSPR[Dab]R; lactam 4-C) | > 40 |  | 
 |  |  | str-RRHSv(Dmp)(Dab)PD-NH2 (Stearoyl-RRHS[dV][Dmp][Dab]PD-NH2) [pCAP-716, Dmp—Di-methyl proline] |  | consistently modestly improved activity over pCAP-674 | IC50 ([7]; FIG. 19, read-out: RXF IC50): 0.42 µM; IC50 ([7]; FIG. 20, read-out: RXF 393 IC50): 0.3 µM; IC50 ([1]; FIG. 19, read-out: PANCI IC50): 2 µM; IC50 ([2]; FIG. 19, read-out: WI38 IC50): 33 µM; IC50 ([3]; FIG. 20, read-out: MIAPaca IC50): 0.3 µM; IC50 ([6]; FIG. 20, read-out: SW-480 IC50): 1 µM; IC50 ([8]; FIG. 19, read-out: PC9 IC50): 0.63 µM; IC50 ([8]; FIG. 20, read-out: PC9 IC50): 0.7 µM; activity in viability assays compared with other peptides (in words) ([5]; listed as 716): highest activity

Compound | IC50 ([1]; 48 h) [µM] | IC50 ([3]; 48 h) [µM] | IC50 ([6]; 48 h) [µM] | IC50 ([2]; 48 h) [µM] | activity in viability assays compared with other peptides (in words) [5] | further results
CCCCCCCCCCCCCC(=O)N[C@@H](CCCNC(=N)N)C(=O)N[C@@H](CCCNC(=N)N)C(=O)N[C@@H](Cc1c[nH]cn1)C(=O)N[C@@H](CO)C(=O)N[C@@H](C(=O)N1CCC[C@H]1C(=O)N[C@@H](CCN)C(=O)N1CCC[C@H]1C(=O)N[C@@H](CC(=O)O)C(=O)O)C(C)C [pCAP-553, myr-RRHSvP(L-Dab)PD] (Myristoyl-RRHS[dV]P[Dab]PD-OH; C-terminus assumed) | 2.1 | 1.2 |  | > 40 | improved efficacy relatively to pCAP-250 | solubility (in words) [4]: better solubility at physiological pH
